Measurements from patent US9017950B2, “Method for enhancing enzyme assays” (Luminescent MD, LLC, priority 2011, dated 2015).

How the values were obtained:
Type in all cases: biochemical
[1] = molecular target: T1, PSA detection antibody-HRP conjugate (Armoracia rusticana, UniProt P00433); assay: Quantification of PSA using PSA detection antibody-HRP conjugate and OD4MI CL detection (CLEIA) in the presence of catalyst
T1 construct: PSA detection antibody (conjugated)
T1 sequence (P00433 31-338 limits assumed): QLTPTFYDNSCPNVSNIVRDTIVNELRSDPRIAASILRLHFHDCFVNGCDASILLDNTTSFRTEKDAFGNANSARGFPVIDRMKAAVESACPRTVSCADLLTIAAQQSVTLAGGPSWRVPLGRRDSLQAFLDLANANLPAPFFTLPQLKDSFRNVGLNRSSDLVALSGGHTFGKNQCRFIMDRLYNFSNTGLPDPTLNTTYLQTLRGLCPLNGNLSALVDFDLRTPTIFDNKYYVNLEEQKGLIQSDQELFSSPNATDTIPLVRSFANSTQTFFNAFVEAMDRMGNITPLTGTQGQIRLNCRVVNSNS
Method: AccuLite® CLIA kit capable of quantifying PSA with luminol CL detection was used to develop new CLEIA method using ODI derivative CL detection. The kit is composed of 96 strip wells coated with monoclonal PSA primary antibody, PSA detection antibody-HRP conjugate, luminol as a substrate, reaction buffer, and washing buffer.
8 different PSA serum samples (0, 0.5, 1, 2, 5, 10, 25, 50 ng/ml), components of AccuLite® CLIA kit, were used as standard samples.
2.0 μM Amplex® Red reagent and 0.2 mM H2O2 in deionized water were prepared as described in Example 1 (A).
0.5 mM 4-Iodophenol was prepared in Tris-HCl buffer solution (pH 8.5).
2.0 mM 4-(1,2,4-triazol-1-yl) phenol was prepared in Tris-HCl buffer solution (pH 8.5).
0.8 ml of aqueous solution containing Amplex® Red reagent (2.0 μM) and H2O2 (0.2 mM) was mixed with 0.2 ml of 4-Iodophenol (or 2.0 mM 4-(1,2,4-triazol-1-yl) phenol).
(§1) OD4MI was formed from the reaction between 5.0 μM TCPO and 10.0 μM 4-Methylimidazole (4MImH) in Ethyl acetate. 100 mM H2O2 was prepared in Isopropyl alcohol.
• 12. Pipette 25 μl of PSA standard or test sample into a strip well. • 13. Add 100 μl of PSA detection antibody-HRP conjugate to the strip well • 14. Swirl the strip wells for 20 seconds. • 15. Incubate for 20 minutes at 37° C. • 16. Discard the contents of each strip wells. • 17. Wash each plate with 300 μl washing buffer. Repeat four additional times. • 18. Add 100 μl working solution containing 2.0 μM Amplex® Red reagent and 0.2 mM H2O2 to each strip well. • 19. Incubate the strip-well containing Amplex® Red reagent, H2O2, and 4-Iodophenol (or 2.0 mM 4-(1,2,4-triazol-1-yl) phenol) for 5.0 minutes at room temperature (21˜23° C.) in the dark. • 20. Pipette 10 μl of working solution into the assigned test tube (12×75 mm). • 21. Insert the test tube into a luminometer or the strip well into a microplate luminometer. • 22. Read (integration time: 0.5 seconds) emitted CL for 0.5 seconds when OD4MI and H2O2 are added into the test tube or strip well through two dispensers.

[2] = molecular target: T2, HRP (Armoracia rusticana, UniProt P00433); assay: Enzyme assay with OD4MI CL detection to quantify HRP in the presence of surfactant; conditions: for dynamic range of enzyme assay for quantifying HRP compared with absence of surfactant: surfactant at critical micelle concentration
T2 construct: purchased Sigma
T2 sequence (P00433 31-338 limits assumed): T1 sequence (P00433 31-338 limits assumed)
Method: Various concentrations (0.5, 1.0, and 1.5%) of Triton® X surfactant derivatives (Triton® X-100, Triton® X-114, Triton® X-405, and Triton® X-705) were prepared in Tris-HCl buffer solution (pH 8.5).
Various surfactants (e.g., (2-Hydroxypropyl)-β-cyclodetrin, β-cyclodextrin, Carboxymethyl-β-cyclodextrin, Carbomethyl-β-cyclodextrin sodium salt, γ-cyclodextrin, Sodium dodecyl sulfate, Hexadecyltrimethylammonium bromide, Hexadecyltrimethylammonium chloride) of critical micelle concentration (CMC) were prepared in Tris-HCl buffer solution (pH 8.5).
As a substrate for ODI derivative CL detection, 2.0 μM Amplex® Red reagent in deionized water was prepared.
Various concentrations (0˜0.1 U/ml) of HRP containing 2.0 mM H2O2 was prepared in Tris-HCl buffer solution (pH 8.5).
1,1′-Oxalyldi-4-methyl-imidazole (OD4MI), one of ODI derivatives was formed from the reaction between 5.0 μM TCPO, and 10.0 μM 4-Methylimidazole (4MImH) in Ethyl acetate. 100 mM H2O2 was prepared in Isopropyl alcohol.
• 5. Mix and incubate 0.8 ml of Amplex® Red reagent (or deionized water), 0.1 ml of surfactant, one of various surfactants used in this research, and 0.1 ml of HRP containing H2O2 for 10 minutes in a 1.5 ml-centrifuge tube at room temperature. • 6. Pipette 10 μl of working solution into the assigned test tube (12×75 mm) or strip well. • 7. Insert the test tube into a luminometer or the strip well into a microplate luminometer. • 8. Read CL emitted when OD4MI and H2O2 are added into the test tube or strip well through two dispensers.

[3] = molecular target: T3, AFP detection antibody-HRP conjugate (Armoracia rusticana, UniProt P00433); assay: Quantification of AFP using AFP detection antibody-HRP conjugate and OD4MI CL detection in the presence of Triton X-100; conditions: 0.1% Triton X-100, OD4MI CL detection, FIG. 6
T3 construct: AFP detection antibody (conjugated)
T3 sequence (P00433 31-338 limits assumed): T1 sequence (P00433 31-338 limits assumed)
Method: AccuLite® CLIA kit capable of quantifying AFP with luminol CL detection was used to develop new CLEIA method using OD4MI CL detection in the presence of 0.1% Triton® X-100 surfactant. The kit is composed of 96 strip wells coated with monoclonal AFP primary antibody, AFP detection antibody-HRP conjugate, luminol as a substrate, reaction buffer, and washing buffer.
2.0 μM Amplex® Red reagent and 0.2 mM H2O2 in deionized water were prepared in water containing 0.1% Triton® X-100 surfactant.
as §1
• 12. Pipette 25 μl of AFP standard or test sample into a strip well. • 13. Add 100 μl of AFP detection antibody-HRP conjugate to the strip well • 14. Swirl the strip wells for 20 seconds. • 15. Incubate for 30 minutes at 37° C. • 16. Discard the contents of each strip wells. • 17. Wash each plate with 300 μl washing buffer. Repeat four additional times. • 18. Add 100 μl working solution containing 2.0 μM Amplex® Red reagent, 0.2 mM H2O2 and 0.1% Triton® X-100 surfactant in the strip well. • 19. […] Read (integration time: 0.5 seconds) emitted CL for 0.5 seconds when OD4MI and H2O2 are added into the test tube or strip well through two dispensers.

Row | Compound | dynamic range of enzyme assay for quantifying HRP compared with absence of surfactant ([2]; OD4MI CL detection) | also measured
1 | Oc1ccc(-n2cncn2)cc1 [4-(1,2,4-triazol-1-yl) phenol] | – | LOD, times lower than in the absence of catalyst [1]: ~10 times
2 | Oc1ccc(I)cc1 [4-Iodophenol] | – | LOD, times lower than in the absence of catalyst [1]: about 20 times; LOD, times lower than in the presence of 4-(1,2,4-triazol-1-yl) phenol [1]: about 2 times
3 | CCCCCCCCCCCCCCCC[N+](C)(C)C.[Br-] [Hexadecyltrimethylammonium bromide] | wider than that in the absence of surfactant | –
4 | CCCCCCCCCCCCCCCC[N+](C)(C)C.[Cl-] [Hexadecyltrimethylammonium chloride] | wider than that in the absence of surfactant | –
5 | CCCCCCCCCCCCOS(=O)(=O)[O-].[Na+] [Sodium dodecyl sulfate] | wider than that in the absence of surfactant | –
6 | OC[C@H]1O[C@@H]2O[C@H]3[C@H](O)[C@@H](O)[C@@H](O[C@H]4[C@H](O)[C@@H](O)[C@@H](O[C@H]5[C@H](O)[C@@H](O)[C@@H](O[C@H]6[C@H](O)[C@@H](O)[C@@H](O[C@H]7[C@H](O)[C@@H](O)[C@@H](O[C@H]8[C@H](O)[C@@H](O)[C@@H](O[C@H]1[C@H](O)[C@H]2O)O[C@@H]8CO)O[C@@H]7CO)O[C@@H]6CO)O[C@@H]5CO)O[C@@H]4CO)O[C@@H]3CO [β-cyclodextrin] | wider than that in the absence of surfactant | –
7 | OC[C@H]1O[C@@H]2O[C@H]3[C@H](O)[C@@H](O)[C@@H](O[C@H]4[C@H](O)[C@@H](O)[C@@H](O[C@H]5[C@H](O)[C@@H](O)[C@@H](O[C@H]6[C@H](O)[C@@H](O)[C@@H](O[C@H]7[C@H](O)[C@@H](O)[C@@H](O[C@H]8[C@H](O)[C@@H](O)[C@@H](O[C@H]9[C@H](O)[C@@H](O)[C@@H](O[C@H]1[C@H](O)[C@H]2O)O[C@@H]9CO)O[C@@H]8CO)O[C@@H]7CO)O[C@@H]6CO)O[C@@H]5CO)O[C@@H]4CO)O[C@@H]3CO [γ-cyclodextrin] | wider than that in the absence of surfactant | –
8 | (2-Hydroxypropyl)-β-cyclodetrin | wider than that in the absence of surfactant | –
9 | Carbomethyl-β-cyclodextrin sodium salt | wider than that in the absence of surfactant | –
10 | Carboxymethyl-β-cyclodextrin | wider than that in the absence of surfactant | –
11 | Triton® X-100 | – | dynamic range to quantify HRP compared with other Triton X derivatives ([2]; 1.0% surfactant, FIG. 5): wider than those in other Triton® X surfactant derivatives; effect on the reaction between Amplex Red reagent and H2O2 in the presence of HRP ([2]; OD4MI CL detection, FIG. 3 to 5): acting to interfere; dynamic range of enzyme assay to quantify HRP, upper end ([2]; higher Triton X-100 concentration, OD4MI CL detection, room temperature, FIG. 3): up to 0.1 U/ml; linear dynamic range for quantification of AFP [3]: 0˜1250 ng/ml
